Measurements published in ChEMBL document CHEMBL3774317, “Design and synthesis of novel tamoxifen analogues that avoid CYP2D6 metabolism” (Eur J Med Chem, 2016).

Assays:
[1] = Metabolic stability in human liver microsomes assessed as remaining parent compound level at 10 uM measured immediately after compound addition in absence of NAPDH by LC/MS analysis; format: ADME; conditions: read-out: Drug metabolism
[2] = Cytotoxicity against human UACC257 cells assessed as cell growth at 50 uM after 48 hrs by SRB assay; format: functional; conditions: UACC-257, 48 h, read-out: Activity
[3] = Cytotoxicity against human SNB75 cells assessed as cell growth at 5 uM after 48 hrs by SRB assay; format: functional; conditions: SNB-75, 48 h, read-out: Activity
[4] = Cytotoxicity against human SNB19 cells assessed as cell growth at 50 uM after 48 hrs by SRB assay; format: functional; conditions: SNB-19, 48 h, read-out: Activity
[5] = test system: SK-MEL-2; test: Cytotoxicity against human SK-MEL-2 cells assessed as cell growth at 50 nM after 48 hrs by SRB assay; format: functional; conditions: SK-MEL-2, 48 h, read-out: Activity
[6] = test system: Malme-3M; test: Cytotoxicity against human MALME-3M cells assessed as cell growth at 5 nM after 48 hrs by SRB assay; format: functional; conditions: read-out: Activity
[7] = test system: K562; test: Cytotoxicity against human K562 cells assessed as cell growth at 5 uM after 48 hrs by SRB assay; format: functional; conditions: K562, 48 h, read-out: Activity
[8] = Cytotoxicity against human SF539 cells assessed as cell growth at 50 nM after 48 hrs by SRB assay; format: functional; conditions: SF-539, 48 h, read-out: Activity
[9] = Cytotoxicity against human HCC2998 cells assessed as cell growth at 50 nM after 48 hrs by SRB assay; format: functional; conditions: HCC 2998, 48 h, read-out: Activity
[10] = test system: NCI-H460; test: Cytotoxicity against human NCI-H460 cells assessed as cell growth at 5 nM after 48 hrs by SRB assay; format: functional; conditions: NCI-H460, 48 h, read-out: Activity
[11] = test system: 786-0; test: Cytotoxicity against human 786-0 cells assessed as cell growth at 50 nM after 48 hrs by SRB assay; format: functional; conditions: 786-0, 48 h, read-out: Activity
[12] = Cytotoxicity against human HCT116 cells assessed as cell growth at 5 nM after 48 hrs by SRB assay; format: functional; conditions: HCT-116, 48 h, read-out: Activity
[13] = test system: M14; test: Cytotoxicity against human M14 cells assessed as cell growth at 5 nM after 48 hrs by SRB assay; format: functional; conditions: M14, 48 h, read-out: Activity
[14] = test system: 786-0; test: Cytotoxicity against human 786-0 cells assessed as cell growth at 5 nM after 48 hrs by SRB assay; format: functional; conditions: 786-0, 48 h, read-out: Activity
[15] = test system: MDA-MB-468; test: Cytotoxicity against human MDA-MB-468 cells assessed as cell growth at 5 uM after 48 hrs by SRB assay; format: functional; conditions: MDA-MB-468, 48 h, read-out: Activity
[16] = test system: NCI-H23; test: Cytotoxicity against human NCI-H23 cells assessed as cell growth at 5 nM after 48 hrs by SRB assay; format: functional; conditions: NCI-H23, 48 h, read-out: Activity
[17] = Cytotoxicity against human COLO205 cells assessed as cell growth at 50 nM after 48 hrs by SRB assay; format: functional; conditions: COLO 205, 48 h, read-out: Activity
[18] = Cytotoxicity against human Caki1 cells assessed as cell growth at 5 uM after 48 hrs by SRB assay; format: functional; conditions: CAKI-1, 48 h, read-out: Activity
[19] = test system: MCF7; test: Cytotoxicity against human MCF7 cells assessed as cell growth at 50 nM after 48 hrs by SRB assay; format: functional; conditions: MCF7, 48 h, read-out: Activity
[20] = test system: MDA-MB-435; test: Cytotoxicity against human MDA-MB-435 cells assessed as cell growth at 10^-5 M after 48 hrs by SRB assay; format: functional; conditions: MDA-MB-435, 48 h, read-out: Activity
[21] = test system: NCI-H23; test: Cytotoxicity against human NCI-H23 cells assessed as cell growth at 10^-7 M after 48 hrs by SRB assay; format: functional; conditions: NCI-H23, 48 h, read-out: Activity
[22] = Cytotoxicity against human DU145 cells assessed as cell growth at 10^-4 M after 48 hrs by SRB assay; format: functional; conditions: DU-145, 48 h, read-out: Activity
[23] = test system: K562; test: Cytotoxicity against human K562 cells assessed as cell growth at 10^-5 M after 48 hrs by SRB assay; format: functional; conditions: K562, 48 h, read-out: Activity
[24] = Cytotoxicity against human HCT116 cells assessed as cell growth at 10^-5 M after 48 hrs by SRB assay; format: functional; conditions: HCT-116, 48 h, read-out: Activity
[25] = Cytotoxicity against human COLO205 cells assessed as cell growth at 10^-5 M after 48 hrs by SRB assay; format: functional; conditions: COLO 205, 48 h, read-out: Activity
[26] = Cytotoxicity against human SNB19 cells assessed as cell growth at 10^-4 M after 48 hrs by SRB assay; format: functional; conditions: SNB-19, 48 h, read-out: Activity
[27] = test system: NCI-H23; test: Cytotoxicity against human NCI-H23 cells assessed as cell growth at 10^-5 M after 48 hrs by SRB assay; format: functional; conditions: NCI-H23, 48 h, read-out: Activity
[28] = test system: 786-0; test: Cytotoxicity against human 786-0 cells assessed as cell growth at 10^-6 M after 48 hrs by SRB assay; format: functional; conditions: 786-0, 48 h, read-out: Activity
[29] = test system: MDA-MB-435; test: Cytotoxicity against human MDA-MB-435 cells assessed as cell growth at 10^-8 M after 48 hrs by SRB assay; format: functional; conditions: MDA-MB-435, 48 h, read-out: Activity
[30] = test system: NCI-H23; test: Cytotoxicity against human NCI-H23 cells assessed as cell growth at 10^-6 M after 48 hrs by SRB assay; format: functional; conditions: NCI-H23, 48 h, read-out: Activity
[31] = test system: MDA-MB-468; test: Cytotoxicity against human MDA-MB-468 cells assessed as cell growth at 10^-6 M after 48 hrs by SRB assay; format: functional; conditions: MDA-MB-468, 48 h, read-out: Activity
[32] = test system: SK-MEL-5; test: Cytotoxicity against human SK-MEL-5 cells assessed as cell growth at 10^-4 M after 48 hrs by SRB assay; format: functional; conditions: SK-MEL-5, 48 h, read-out: Activity
[33] = Cytotoxicity against human SF268 cells assessed as cell growth at 10^-4 M after 48 hrs by SRB assay; format: functional; conditions: SF-268, 48 h, read-out: Activity
[34] = test system: NCI-H522; test: Cytotoxicity against human NCI-H522 cells assessed as cell growth at 10^-4 M after 48 hrs by SRB assay; format: functional; conditions: NCI-H522, 48 h, read-out: Activity
[35] = Cytotoxicity against human OVCAR3 cells assessed as cell growth at 10^-6 M after 48 hrs by SRB assay; format: functional; conditions: OVCAR-3, 48 h, read-out: Activity
[36] = Cytotoxicity against human SW620 cells assessed as cell growth at 10^-6 M after 48 hrs by SRB assay; format: functional; conditions: SW-620, 48 h, read-out: Activity
[37] = test system: U-251; test: Cytotoxicity against human U251 cells assessed as cell growth at 10^-7 M after 48 hrs by SRB assay; format: functional; conditions: U-251, 48 h, read-out: Activity
[38] = Cytotoxicity against human MOLT4 cells assessed as cell growth at 10^-5 M after 48 hrs by SRB assay; format: functional; conditions: MOLT-4, 48 h, read-out: Activity
[39] = Cytotoxicity against human HL-60(TB) cells assessed as cell growth at 10^-5 M after 48 hrs by SRB assay; format: functional; conditions: HL-60, 48 h, read-out: Activity
[40] = Cytotoxicity against human OVCAR5 cells assessed as cell growth at 10^-5 M after 48 hrs by SRB assay; format: functional; conditions: OVCAR-5, 48 h, read-out: Activity
[41] = Cytotoxicity against human MOLT4 cells assessed as cell growth at 10^-8 M after 48 hrs by SRB assay; format: functional; conditions: MOLT-4, 48 h, read-out: Activity

**Q.** For `CCCCCCCCCC(=O)Oc1ccc(/C(=C(/C)c2ccccc2)c2ccc(OCCN3CCCC3)cc2)cc1`, which remaining at 0 h, 10 µM [1] is on record?
**A.** The remaining at 0 h, 10 µM was 82%.

**Q.** What about the growth at 50 µM [2] of the same compound?
**A.** The growth at 50 µM was -91%.

**Q.** And the growth at 5 µM [3]?
**A.** Its growth at 5 µM is 69%.

**Q.** And the growth at 50 µM [4]?
**A.** The growth at 50 µM was -77%.

**Q.** And the growth at 0.05 µM [5]?
**A.** The growth at 0.05 µM was 101%.

**Q.** And the growth at 0.005 µM [6]?
**A.** Its growth at 0.005 µM is 108%.

**Q.** And the growth at 5 µM [7]?
**A.** The growth at 5 µM was 74%.

**Q.** What about the growth at 0.05 µM [8] of the same compound?
**A.** Its growth at 0.05 µM is 98%.

**Q.** And the growth at 0.05 µM [9]?
**A.** Its growth at 0.05 µM is 98%.

**Q.** What about the growth at 0.005 µM [10] of the same compound?
**A.** Its growth at 0.005 µM is 102%.

**Q.** What about the growth at 0.05 µM [11] of the same compound?
**A.** Its growth at 0.05 µM is 94%.

**Q.** What about the growth at 0.005 µM [12] of the same compound?
**A.** Its growth at 0.005 µM is 98%.

**Q.** And the growth at 0.005 µM [13]?
**A.** The growth at 0.005 µM was 98%.

**Q.** What about the growth at 0.005 µM [14] of the same compound?
**A.** The growth at 0.005 µM was 102%.

**Q.** And the growth at 5 µM [15]?
**A.** Its growth at 5 µM is 76%.

**Q.** What about the growth at 0.005 µM [16] of the same compound?
**A.** The growth at 0.005 µM was 92%.

**Q.** And the growth at 0.05 µM [17]?
**A.** Its growth at 0.05 µM is 96%.

**Q.** And the growth at 5 µM [18]?
**A.** The growth at 5 µM was 71%.

**Q.** And the growth at 0.05 µM [19]?
**A.** Its growth at 0.05 µM is 41%.

**Q.** For `C/C(=C(/c1ccc(O)cc1)c1ccc(OCCN2CCCC2)cc1)c1ccccc1`, which growth at 10 µM [20] is on record?
**A.** The growth at 10 µM was -48%.

**Q.** And the growth at 0.1 µM [21]?
**A.** The growth at 0.1 µM was 94%.

**Q.** And the growth at 100 µM [22]?
**A.** The growth at 100 µM was -100%.

**Q.** And the growth at 10 µM [23]?
**A.** Its growth at 10 µM is -38%.

**Q.** What about the growth at 10 µM [24] of the same compound?
**A.** Its growth at 10 µM is 1%.

**Q.** What about the growth at 10 µM [25] of the same compound?
**A.** The growth at 10 µM was -79%.

**Q.** And the growth at 100 µM [26]?
**A.** Its growth at 100 µM is -74%.

**Q.** What about the growth at 10 µM [27] of the same compound?
**A.** Its growth at 10 µM is 29%.

**Q.** And the growth at 1 µM [28]?
**A.** Its growth at 1 µM is 89%.

**Q.** What about the growth at 0.01 µM [29] of the same compound?
**A.** Its growth at 0.01 µM is 93%.

**Q.** And the growth at 1 µM [30]?
**A.** The growth at 1 µM was 86%.

**Q.** What about the growth at 1 µM [31] of the same compound?
**A.** Its growth at 1 µM is 84%.

**Q.** What about the growth at 100 µM [32] of the same compound?
**A.** The growth at 100 µM was -100%.

**Q.** What about the growth at 100 µM [33] of the same compound?
**A.** The growth at 100 µM was -80%.

**Q.** And the growth at 100 µM [34]?
**A.** The growth at 100 µM was -82%.

**Q.** What about the growth at 1 µM [35] of the same compound?
**A.** Its growth at 1 µM is 97%.

**Q.** What about the growth at 1 µM [36] of the same compound?
**A.** The growth at 1 µM was 101%.

**Q.** What about the growth at 0.1 µM [37] of the same compound?
**A.** The growth at 0.1 µM was 100%.

**Q.** And the growth at 10 µM [38]?
**A.** Its growth at 10 µM is 3%.

**Q.** What about the growth at 10 µM [39] of the same compound?
**A.** Its growth at 10 µM is -39%.

**Q.** And the growth at 10 µM [40]?
**A.** Its growth at 10 µM is 46%.

**Q.** And the growth at 0.01 µM [41]?
**A.** The growth at 0.01 µM was 102%.
